Source: patent US8445676B2, “Pyrrolotriazine kinase inhibitors” (Bristol-Myers Squibb Company, priority 2008, dated 2013)
Read-outs that look alike come from different tables or passages of the source.

Assays:
[1] = target: JAK2 (Homo sapiens, UniProt O60674); assay: JAK2 Tyrosine Kinase Assay; type: biochemical
Summary of the method: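 Reaction of JAK2 with fluorescent substrate run 60 min at room temperature and stopped with EDTA. Substrate and phosphorylated product separated electrophoretically on a Caliper LabChip. Compounds tested at eleven concentrations in duplicate, with IC50 from non-linear regression.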

[2] = target: T1, JAK3 (Homo sapiens, UniProt P52333); assay: JAK3 Tyrosine Kinase Assay; type: biochemical; details: ATP 8 μM; JAK3 2.5 nM; 60 min room temperature
T1 sequence (P52333 1-1124): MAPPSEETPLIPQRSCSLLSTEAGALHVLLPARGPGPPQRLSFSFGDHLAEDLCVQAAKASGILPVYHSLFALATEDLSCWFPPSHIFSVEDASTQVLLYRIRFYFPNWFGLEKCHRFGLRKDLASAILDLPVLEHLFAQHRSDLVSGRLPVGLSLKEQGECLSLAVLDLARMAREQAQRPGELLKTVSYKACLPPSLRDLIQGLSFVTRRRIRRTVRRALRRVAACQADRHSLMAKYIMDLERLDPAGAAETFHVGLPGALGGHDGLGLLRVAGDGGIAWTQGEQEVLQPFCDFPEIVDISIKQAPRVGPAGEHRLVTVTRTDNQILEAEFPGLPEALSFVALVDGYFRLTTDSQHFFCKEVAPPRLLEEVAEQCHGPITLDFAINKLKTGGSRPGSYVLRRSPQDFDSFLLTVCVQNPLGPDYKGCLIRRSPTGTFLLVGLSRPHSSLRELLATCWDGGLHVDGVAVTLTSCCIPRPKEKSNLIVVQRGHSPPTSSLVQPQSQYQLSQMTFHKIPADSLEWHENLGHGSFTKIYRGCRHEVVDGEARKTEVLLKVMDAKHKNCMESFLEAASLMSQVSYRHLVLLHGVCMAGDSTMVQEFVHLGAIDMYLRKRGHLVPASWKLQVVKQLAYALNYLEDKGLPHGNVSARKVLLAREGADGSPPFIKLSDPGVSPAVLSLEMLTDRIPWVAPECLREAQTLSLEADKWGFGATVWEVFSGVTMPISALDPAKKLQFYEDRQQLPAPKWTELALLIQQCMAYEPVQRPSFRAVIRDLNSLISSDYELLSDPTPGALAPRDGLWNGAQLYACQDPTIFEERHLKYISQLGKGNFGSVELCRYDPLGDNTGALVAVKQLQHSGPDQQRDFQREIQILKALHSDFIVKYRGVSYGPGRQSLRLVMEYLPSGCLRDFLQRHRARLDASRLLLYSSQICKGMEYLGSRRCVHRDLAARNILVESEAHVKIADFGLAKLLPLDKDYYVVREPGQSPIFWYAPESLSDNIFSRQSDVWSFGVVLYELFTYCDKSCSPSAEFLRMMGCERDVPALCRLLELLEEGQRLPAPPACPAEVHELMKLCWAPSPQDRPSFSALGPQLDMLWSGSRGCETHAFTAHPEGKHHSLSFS
Protocol: JAK3 Tyrosine Kinase Assay
The assays were performed in V-bottom 384-well plates. […] The reaction was initiated by the combination of JAK3 with substrates and test compounds. The reaction was incubated at room temperature for 60 min. and terminated by adding 45 μl of 35 mM EDTA to each sample. The reaction mixture was analyzed on the Caliper LabChip 3000 by electrophoretic separation of the fluorescent substrate and phosphorylated product. […] The final concentration of reagents in the assays is ATP, 8 μM; JAK3 fluorescent peptide, 1.5 μM; JAK3, 2.5 nM; and DMSO, 1.6%. […] Compounds were dissolved at 10 mM in dimethylsulfoxide (DMSO) and evaluated at eleven concentrations, each in duplicate. IC50 values were derived by non-linear regression analysis.

[3] = ATP 30 μM, JAK2 1 nM, 60 min room temperature, read-out: Jak2(IC50)
[4] = list of named compounds, read-out: IC50 in the JAK2 assay

Sequence of JAK2 (O60674 whole entry): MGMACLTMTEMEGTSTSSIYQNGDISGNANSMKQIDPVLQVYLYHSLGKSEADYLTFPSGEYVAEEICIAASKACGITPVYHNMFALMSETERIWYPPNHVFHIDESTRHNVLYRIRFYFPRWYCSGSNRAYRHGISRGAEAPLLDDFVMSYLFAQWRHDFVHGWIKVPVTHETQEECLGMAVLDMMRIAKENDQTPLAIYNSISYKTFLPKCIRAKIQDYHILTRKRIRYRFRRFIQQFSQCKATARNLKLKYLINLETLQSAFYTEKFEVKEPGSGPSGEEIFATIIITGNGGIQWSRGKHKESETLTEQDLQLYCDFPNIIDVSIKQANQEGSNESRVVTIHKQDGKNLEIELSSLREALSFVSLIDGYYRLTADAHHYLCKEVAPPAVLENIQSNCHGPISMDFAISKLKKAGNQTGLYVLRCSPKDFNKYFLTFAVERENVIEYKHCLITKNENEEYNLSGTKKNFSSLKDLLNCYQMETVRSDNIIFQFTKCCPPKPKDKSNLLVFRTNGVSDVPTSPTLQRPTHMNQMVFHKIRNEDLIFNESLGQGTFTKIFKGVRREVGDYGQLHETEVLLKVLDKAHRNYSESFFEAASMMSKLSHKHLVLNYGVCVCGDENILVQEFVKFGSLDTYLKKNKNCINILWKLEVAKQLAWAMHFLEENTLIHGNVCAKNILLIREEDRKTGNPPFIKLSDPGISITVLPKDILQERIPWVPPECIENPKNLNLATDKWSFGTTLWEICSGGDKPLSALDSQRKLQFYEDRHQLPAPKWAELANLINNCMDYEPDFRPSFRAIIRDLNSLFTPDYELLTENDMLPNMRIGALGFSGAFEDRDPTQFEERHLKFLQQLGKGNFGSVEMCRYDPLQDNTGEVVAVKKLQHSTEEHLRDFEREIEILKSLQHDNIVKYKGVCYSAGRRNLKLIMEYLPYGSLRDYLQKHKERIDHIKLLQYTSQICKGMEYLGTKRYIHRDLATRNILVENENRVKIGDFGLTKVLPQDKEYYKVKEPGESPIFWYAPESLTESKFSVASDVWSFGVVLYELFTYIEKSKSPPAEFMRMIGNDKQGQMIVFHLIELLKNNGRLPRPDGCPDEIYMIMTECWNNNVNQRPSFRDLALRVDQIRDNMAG

Row | Structure (SMILES) | IC50 [1, 3] | IC50 [2] | IC50 [1, 4]
1 | Cc1cc(Nc2nc(N3CCN(C(=O)Cc4ccc(C(F)(F)F)cc4)CC3)nn3cccc23)n[nH]1 [Example 43, N-(5-methyl-1H-pyrazol-3-yl)-2-(4-((4-(trifluoromethyl)phenyl)acetyl)-1-piperazinyl)pyrrolo[2,1-f][1,2,4]triazin-4-amine] | 2.66 µM | 50 µM | 
2 | Cc1cc(Nc2nc(N3CCN(C(=O)c4ccc(F)cc4)CC3)nn3cccc23)n[nH]1 [Example 24, 2-(4-(4-fluorobenzoyl)-1-piperazinyl)-N-(5-methyl-1H-pyrazol-3-yl)pyrrolo[2,1-f][1,2,4]triazin-4-amine] | 0.00114 µM | 0.00598 µM | 
3 | COc1ccc(CC(=O)N2CCN(c3nc(Nc4cc(C)[nH]n4)c4cccn4n3)CC2)cc1 [Example 45, 2-(4-((4-methoxyphenyl)acetyl)-1-piperazinyl)-N-(5-methyl-1H-pyrazol-3-yl)pyrrolo[2,1-f][1,2,4]triazin-4-amine] | 0.000891 µM | 0.01 µM | 
4 | CO[C@@H](C(=O)N1CCN(c2nc(Nc3cc(C)[nH]n3)c3cccn3n2)CC1)c1ccccc1 [Example 110, 2-(4-((2R)-2-methoxy-2-phenylacetyl)-1-piperazinyl)-N-(5-methyl-1H-pyrazol-3-yl)pyrrolo[2,1-f][1,2,4]triazin-4-amine] | 0.001 µM | 0.02 µM | 
5 | Cc1cc(Nc2nc(N3CCN(C(=O)c4ncccn4)CC3)nn3cccc23)n[nH]1 [Example 95, N-(5-methyl-1H-pyrazol-3-yl)-2-(4-(2-pyrimidinylcarbonyl)-1-piperazinyl)pyrrolo[2,1-f] [1,2,4]triazin-4-amine] | 0.00665 µM | 0.09 µM | 
6 | CO[C@H](C(=O)N1CCN(c2nc(Nc3cc(C)[nH]n3)c3cccn3n2)CC1)c1ccccc1 [Example 90, 2-(4-((2S)-2-methoxy-2-phenylacetyl)-1-piperazinyl)-N-(5-methyl-1H-pyrazol-3-yl)pyrrolo[2,1-f] [1,2,4]triazin-4-amine] | 0.00815 µM | 0.07 µM | 
7 | CCOc1cc(F)c(CC(=O)N2CCN(c3nc(Nc4cc(C)[nH]n4)c4cccn4n3)CC2)c(F)c1 [2-(4-((4-ethoxy-2,6-difluorophenyl)acetyl)-1-piperazinyl)-N-(5-methyl-1H-pyrazol-3-yl)pyrrolo[2,1-f][1,2,4]triazin-4-amine] |  |  | ≤ 0.005 µM
8 | Cc1cc(Nc2nc(N3CCN(C(=O)c4ccccc4Br)CC3)nn3cccc23)n[nH]1 [2-(4-(2-bromobenzoyl)-1-piperazinyl)-N-(5-methyl-1H-pyrazol-3-yl)pyrrolo[2,1-f][1,2,4]triazin-4-amine] |  |  | ≤ 0.005 µM
9 | Cc1cccc(C(=O)N2CCN(c3nc(Nc4cc(C)[nH]n4)c4cccn4n3)CC2)c1 [2-(4-(3-methylbenzoyl)-1-piperazinyl)-N-(5-methyl-1H-pyrazol-3-yl)pyrrolo[2,1-f][1,2,4]triazin-4-amine] |  |  | ≤ 0.005 µM
10 | COc1cccc(C(=O)N2CCN(c3nc(Nc4cc(C)[nH]n4)c4cccn4n3)CC2)c1 [2-(4-(3-methoxybenzoyl)-1-piperazinyl)-N-(5-methyl-1H-pyrazol-3-yl)pyrrolo[2,1-f][1,2,4]triazin-4-amine] |  |  | ≤ 0.005 µM
11 | Cc1cc(Nc2nc(N3CCN(C(=O)Cc4ccccc4Br)CC3)nn3cccc23)n[nH]1 [2-(4-((2-bromophenyl)acetyl)-1-piperazinyl)-N-(5-methyl-1H-pyrazol-3-yl)pyrrolo[2,1-f][1,2,4]triazin-4-amine] |  |  | ≤ 0.005 µM
12 | Cc1cc(Nc2nc(N3CCN(C(=O)c4c(C)cccc4Cl)CC3)nn3cccc23)n[nH]1 [2-(4-(2-chloro-6-methylbenzoyl)-1-piperazinyl)-N-(5-methyl-1H-pyrazol-3-yl)pyrrolo[2,1-f][1,2,4]triazin-4-amine] |  |  | ≤ 0.005 µM

Results, then the compound that gave them:

Row | IC50 [1, 3] | IC50 [2] | IC50 [1, 4] | Structure (SMILES)
13 | 0.00725 µM | 0.12 µM |  | Cc1cc(Nc2nc(N3CCN(C(=O)c4ccccc4-c4ccccc4)CC3)nn3cccc23)n[nH]1 [Example 200, 2-(4-(2-biphenylylcarbonyl)-1-piperazinyl)-N-(5-methyl-1H-pyrazol-3-yl)pyrrolo[2,1-f][1,2,4]triazin-4-amine]
14 | 0.24 µM | 1.49 µM |  | CCC(O)(CC)C(=O)N1CCN(c2nc(Nc3cc(C)[nH]n3)c3cccn3n2)CC1 [Example 164, 3-((4-(4-((5-methyl-1H-pyrazol-3-yl)amino)pyrrolo[2,1-f] [1,2,4]triazin-2-yl)-1-piperazinyl)carbonyl)-3-pentanol]
15 | 0.000971 µM | 0.03 µM |  | Cc1cc(Nc2nc(N3CCN(C(=O)[C@@H](NC(=O)OC(C)(C)C)c4ccc(F)cc4)CC3)nn3cccc23)n[nH]1 [Example 132, tert-butyl((1S)-1-(4-fluorophenyl)-2-(4-(4-((5-methyl-1H-pyrazol-3-yl)amino)pyrrolo[2,1-f][1,2,4]triazin-2-yl)-1-piperazinyl)-2-oxoethyl)carbamate]
16 | 0.3 µM | 1.74 µM |  | Cc1cc(Nc2nc(N3CCN(C(=O)C(C)(C)N(C)C(=O)OC(C)(C)C)CC3)nn3cccc23)n[nH]1 [Example 158, tert-butyl(1,1-dimethyl-2-(4-(4-((5-methyl-1H-pyrazol-3-yl)amino)pyrrolo[2,1-f] [1,2,4]triazin-2-yl)-1-piperazinyl)-2-oxoethyl)methylcarbamate]
17 | 0.3 µM | 2.36 µM |  | CCC(CO)(CO)C(=O)N1CCN(c2nc(Nc3cc(C)[nH]n3)c3cccn3n2)CC1 [Example 152, 2-ethyl-2-((4-(4-((5-methyl-1H-pyrazol-3-yl)amino)pyrrolo[2,1-f] [1,2,4]triazin-2-yl)-1-piperazinyl)carbonyl)-1,3-propanediol]
18 | 0.13 µM | 3.05 µM |  | Cc1cc(Nc2nc(N3CCN(C(=O)c4ccccc4S(C)(=O)=O)CC3)nn3cccc23)n[nH]1 [Example 193, N-(5-methyl-1H-pyrazol-3-yl)-2-(4-(2-(methylsulfonyl)benzoyl)-1-piperazinyl)pyrrolo[2,1-f][1,2,4]triazin-4-amine]
19 |  | 0.07 µM |  | COc1cc(F)c(CC(=O)N2CCN(c3nc(Nc4cc(C)[nH]n4)c4cccn4n3)CC2)c(F)c1 [Example 139, 2-(4-((2,6-difluoro-4-methoxyphenyl)acetyl)-1-piperazinyl)-N-(5-methyl-1H-pyrazol-3-yl)pyrrolo[2,1-f][1,2,4]triazin-4-amine]
20 |  |  | ≤ 0.005 µM | Cc1cc(Nc2nc(N3CCN(C(=O)c4ccc(C(F)(F)F)cc4)CC3)nn3cccc23)n[nH]1 [N-(5-methyl-1H-pyrazol-3-yl)-2-(4-(4-(trifluoromethyl)benzoyl)-1-piperazinyl)pyrrolo[2,1-f][1,2,4]triazin-4-amine]
21 |  |  | ≤ 0.005 µM | Cc1cc(Nc2nc(N3CCN(C(=O)C4(C(F)(F)F)CCC4)CC3)nn3cccc23)n[nH]1 [N-(5-methyl-1H-pyrazol-3-yl)-2-(4-((1-(trifluoromethyl)cyclobutyl)carbonyl)-1-piperazinyl)pyrrolo[2,1-f][1,2,4]triazin-4-amine]
22 |  |  | ≤ 0.005 µM | Cc1cc(Nc2nc(N3CCN(C(=O)c4cnon4)CC3)nn3cccc23)n[nH]1 [N-(5-methyl-1H-pyrazol-3-yl)-2-(4-(1,2,5-oxadiazol-3-ylcarbonyl)-1-piperazinyl)pyrrolo[2,1-f][1,2,4]triazin-4-amine]
23 |  |  | ≤ 0.005 µM | Cc1cc(Nc2nc(N3CCN(C(=O)Cc4cccc(OC(F)(F)F)c4)CC3)nn3cccc23)n[nH]1 [N-(5-methyl-1H-pyrazol-3-yl)-2-(4-((3-(trifluoromethoxy)phenyl)acetyl)-1-piperazinyl)pyrrolo[2,1-f][1,2,4]triazin-4-amine]
24 |  |  | ≤ 0.005 µM | CC(=O)Nc1ccccc1C(=O)N1CCN(c2nc(Nc3cc(C)[nH]n3)c3cccn3n2)CC1 [N-(2-((4-(4-((5-methyl-1H-pyrazol-3-yl)amino)pyrrolo[2,1-f][1,2,4]triazin-2-yl)-1-piperazinyl)carbonyl)phenyl)acetamide]
